From ChEMBL document CHEMBL5625277, “Systematical mutational analysis of teriparatide on anti-osteoporosis activity by alanine scanning” (Bioorg Med Chem Lett, 2024)

Test: Cytotoxicity in pre-osteoblasts (unknown origin) assessed as cell death upto 5 uM by CCK8 assay
Assay type: toxicity, cell-based
Conditions: pre-osteoblast

SMILES | Activity
CC[C@H](C)[C@H](NC(=O)[C@H](CCC(=O)O)NC(=O)[C@H](CO)NC(=O)[C@@H](NC(=O)[C@H](CO)NC(C)=O)C(C)C)C(=O)N[C@@H](CCC(N)=O)C(=O)N[C@@H](CC(C)C)C(=O)N[C@@H](CCSC)C(=O)N[C@@H](C)C(=O)N[C@@H](CC(N)=O)C(=O)N[C@@H](CC(C)C)C(=O)NCC(=O)N[C@@H](CCCCN)C(=O)N[C@@H](Cc1cnc[nH]1)C(=O)N[C@@H](CC(C)C)C(=O)N[C@@H](CC(N)=O)C(=O)N[C@@H](CO)C(=O)N[C@@H](CCSC)C(=O)N[C@@H](CCC(=O)O)C(=O)N[C@@H](CCCNC(=N)N)C(=O)N[C@H](C(=O)N[C@@H](CCC(=O)O)C(=O)N[C@@H](Cc1c[nH]c2ccccc12)C(=O)N[C@@H](CC(C)C)C(=O)N[C@@H](CCCNC(=N)N)C(=O)N[C@@H](CCCCN)C(=O)N[C@@H](CCCCN)C(=O)N[C@@H](CC(C)C)C(=O)N[C@@H](CCC(N)=O)C(=O)N[C@@H](CC(=O)O)C(=O)N[C@H](C(=O)N[C@@H](Cc1cnc[nH]1)C(=O)N[C@@H](CC(N)=O)C(=O)N[C@@H](Cc1ccccc1)C(N)=O)C(C)C)C(C)C | Non-Toxic
CC[C@H](C)[C@H](NC(=O)[C@H](CCC(=O)O)NC(=O)[C@H](CO)NC(=O)[C@@H](NC(=O)[C@H](CO)NC(C)=O)C(C)C)C(=O)N[C@@H](CCC(N)=O)C(=O)N[C@@H](CC(C)C)C(=O)N[C@@H](CCSC)C(=O)N[C@@H](Cc1cnc[nH]1)C(=O)N[C@@H](CC(N)=O)C(=O)N[C@@H](CC(C)C)C(=O)NCC(=O)N[C@@H](CCCCN)C(=O)N[C@@H](Cc1cnc[nH]1)C(=O)N[C@@H](CC(C)C)C(=O)N[C@@H](CC(N)=O)C(=O)N[C@@H](CO)C(=O)N[C@@H](CCSC)C(=O)N[C@@H](CCC(=O)O)C(=O)N[C@@H](CCCNC(=N)N)C(=O)N[C@H](C(=O)N[C@@H](CCC(=O)O)C(=O)N[C@@H](Cc1c[nH]c2ccccc12)C(=O)N[C@@H](CC(C)C)C(=O)N[C@@H](CCCNC(=N)N)C(=O)N[C@@H](CCCCN)C(=O)N[C@@H](CCCCN)C(=O)N[C@@H](CC(C)C)C(=O)N[C@@H](CCC(N)=O)C(=O)N[C@@H](CC(=O)O)C(=O)N[C@H](C(=O)N[C@@H](Cc1cnc[nH]1)C(=O)N[C@@H](C)C(=O)N[C@@H](Cc1ccccc1)C(N)=O)C(C)C)C(C)C | Non-Toxic
CC[C@H](C)[C@H](NC(=O)[C@H](CCC(=O)O)NC(=O)[C@H](CO)NC(=O)[C@@H](NC(=O)[C@H](CO)NC(C)=O)C(C)C)C(=O)N[C@@H](CCC(N)=O)C(=O)N[C@@H](CC(C)C)C(=O)N[C@@H](CCSC)C(=O)N[C@@H](Cc1cnc[nH]1)C(=O)N[C@@H](CC(N)=O)C(=O)N[C@@H](CC(C)C)C(=O)NCC(=O)N[C@@H](CCCCN)C(=O)N[C@@H](Cc1cnc[nH]1)C(=O)N[C@@H](CC(C)C)C(=O)N[C@@H](CC(N)=O)C(=O)N[C@@H](CO)C(=O)N[C@@H](CCSC)C(=O)N[C@@H](C)C(=O)N[C@@H](CCCNC(=N)N)C(=O)N[C@H](C(=O)N[C@@H](CCC(=O)O)C(=O)N[C@@H](Cc1c[nH]c2ccccc12)C(=O)N[C@@H](CC(C)C)C(=O)N[C@@H](CCCNC(=N)N)C(=O)N[C@@H](CCCCN)C(=O)N[C@@H](CCCCN)C(=O)N[C@@H](CC(C)C)C(=O)N[C@@H](CCC(N)=O)C(=O)N[C@@H](CC(=O)O)C(=O)N[C@H](C(=O)N[C@@H](Cc1cnc[nH]1)C(=O)N[C@@H](CC(N)=O)C(=O)N[C@@H](Cc1ccccc1)C(N)=O)C(C)C)C(C)C | Non-Toxic
CC[C@H](C)[C@H](NC(=O)[C@H](CCC(=O)O)NC(=O)[C@H](CO)NC(=O)[C@@H](NC(=O)[C@H](CO)NC(C)=O)C(C)C)C(=O)N[C@@H](CCC(N)=O)C(=O)N[C@@H](CC(C)C)C(=O)N[C@@H](CCSC)C(=O)N[C@@H](Cc1cnc[nH]1)C(=O)N[C@@H](CC(N)=O)C(=O)N[C@@H](CC(C)C)C(=O)NCC(=O)N[C@@H](CCCCN)C(=O)N[C@@H](Cc1cnc[nH]1)C(=O)N[C@@H](CC(C)C)C(=O)N[C@@H](CC(N)=O)C(=O)N[C@@H](CO)C(=O)N[C@@H](CCSC)C(=O)N[C@@H](CCC(=O)O)C(=O)N[C@@H](CCCNC(=N)N)C(=O)N[C@H](C(=O)N[C@@H](CCC(=O)O)C(=O)N[C@@H](Cc1c[nH]c2ccccc12)C(=O)N[C@@H](CC(C)C)C(=O)N[C@@H](CCCNC(=N)N)C(=O)N[C@@H](CCCCN)C(=O)N[C@@H](CCCCN)C(=O)N[C@@H](CC(C)C)C(=O)N[C@@H](CCC(N)=O)C(=O)N[C@@H](CC(=O)O)C(=O)N[C@H](C(=O)N[C@@H](C)C(=O)N[C@@H](CC(N)=O)C(=O)N[C@@H](Cc1ccccc1)C(N)=O)C(C)C)C(C)C | Non-Toxic
CC[C@H](C)[C@H](NC(=O)[C@H](CCC(=O)O)NC(=O)[C@H](CO)NC(=O)[C@@H](NC(=O)[C@H](CO)NC(C)=O)C(C)C)C(=O)N[C@@H](CCC(N)=O)C(=O)N[C@@H](CC(C)C)C(=O)N[C@@H](CCSC)C(=O)N[C@@H](Cc1cnc[nH]1)C(=O)N[C@@H](CC(N)=O)C(=O)N[C@@H](CC(C)C)C(=O)NCC(=O)N[C@@H](CCCCN)C(=O)N[C@@H](Cc1cnc[nH]1)C(=O)N[C@@H](CC(C)C)C(=O)N[C@@H](CC(N)=O)C(=O)N[C@@H](CO)C(=O)N[C@@H](CCSC)C(=O)N[C@@H](CCC(=O)O)C(=O)N[C@@H](CCCNC(=N)N)C(=O)N[C@H](C(=O)N[C@@H](CCC(=O)O)C(=O)N[C@@H](Cc1c[nH]c2ccccc12)C(=O)N[C@@H](CC(C)C)C(=O)N[C@@H](CCCNC(=N)N)C(=O)N[C@@H](CCCCN)C(=O)N[C@@H](CCCCN)C(=O)N[C@@H](C)C(=O)N[C@@H](CCC(N)=O)C(=O)N[C@@H](CC(=O)O)C(=O)N[C@H](C(=O)N[C@@H](Cc1cnc[nH]1)C(=O)N[C@@H](CC(N)=O)C(=O)N[C@@H](Cc1ccccc1)C(N)=O)C(C)C)C(C)C | Non-Toxic
CC[C@H](C)[C@H](NC(=O)[C@H](CCC(=O)O)NC(=O)[C@H](CO)NC(=O)[C@@H](NC(=O)[C@H](CO)NC(C)=O)C(C)C)C(=O)N[C@@H](CCC(N)=O)C(=O)N[C@@H](CC(C)C)C(=O)N[C@@H](CCSC)C(=O)N[C@@H](Cc1cnc[nH]1)C(=O)N[C@@H](CC(N)=O)C(=O)N[C@@H](CC(C)C)C(=O)NCC(=O)N[C@@H](CCCCN)C(=O)N[C@@H](Cc1cnc[nH]1)C(=O)N[C@@H](CC(C)C)C(=O)N[C@@H](CC(N)=O)C(=O)N[C@@H](CO)C(=O)N[C@@H](CCSC)C(=O)N[C@@H](CCC(=O)O)C(=O)N[C@@H](CCCNC(=N)N)C(=O)N[C@H](C(=O)N[C@@H](CCC(=O)O)C(=O)N[C@@H](Cc1c[nH]c2ccccc12)C(=O)N[C@@H](CC(C)C)C(=O)N[C@@H](CCCNC(=N)N)C(=O)N[C@@H](CCCCN)C(=O)N[C@@H](CCCCN)C(=O)N[C@@H](CC(C)C)C(=O)N[C@@H](C)C(=O)N[C@@H](CC(=O)O)C(=O)N[C@H](C(=O)N[C@@H](Cc1cnc[nH]1)C(=O)N[C@@H](CC(N)=O)C(=O)N[C@@H](Cc1ccccc1)C(N)=O)C(C)C)C(C)C | Non-Toxic
